This is an account of results in ChEMBL document CHEMBL1155947, “Discovery of a novel series of benzoic acid derivatives as potent and selective human beta3 adrenergic receptor agonists with good oral bioavailability. 3. Phenylethanolaminotetraline (PEAT) skeleton containing biphenyl or biphenyl ether moiety” (J Med Chem, 2008).

Where only a bound is given, the exact number is not on record here.

Data set [1] is described as follows: AUC (0 to 24 hrs) in dog at 0.32 mg/kg, po by cassette assay. The class given is ADME, organism-based, Canis lupus familiaris. Set-up: time < 24 hr, dose 0.32 mg/kg, route oral. Conditions: plasma.
The nature of data set [2]: Terminal half life in dog at 0.1 mg/mL, iv by cassette assay. Format: ADME, organism-based, Canis lupus familiaris. The conditions noted are these: in vivo.
Data set [3] concerns Canis familiaris. The experiment in a line: Ratio of Cmax for drug to Cmax for 3-[((7S)-7-{[(2R)-2-(3-Chlorophenyl)-2-hydroxyethyl]amino}-5,6,7,8-tetrahydro-2-naphthalenyl)oxy]benzoic acid hydrochloride in dog at 0.1 or 0.20 mg/kg, po by cassette dosing assay. The conditions noted are these: in vivo, 0.2 mg/kg. Set-up: dose 0.2 mg/kg, route oral. Format: ADME, organism-based, Canis lupus familiaris.

The species named for the next data set is Homo sapiens. The experiment in a line: Ratio of EC50 for human cloned beta-1 adrenergic receptor to EC50 for human cloned beta3 adrenergic receptor.
Data set [4] has as its target Beta-3 adrenergic receptor (Homo sapiens, UniProt P13945). The experiment in a line: Agonist activity at human cloned beta3 adrenergic receptor expressed in CHO cells assessed as cAMP accumulation. Format: functional, cell-based.
In data set [5] the target is Beta-2 adrenergic receptor (Homo sapiens, UniProt P07550). The experiment in a line: Agonist activity at human beta2 adrenergic receptor expressed in CHO cells assessed as cAMP accumulation. Format: functional, cell-based.
Data set [6] deals with Canis familiaris. The experiment in a line: Ratio of AUC for drug to AUC for 3-[((7S)-7-{[(2R)-2-(3-Chlorophenyl)-2-hydroxyethyl]amino}-5,6,7,8-tetrahydro-2-naphthalenyl)oxy]benzoic acid hydrochloride in dog at 0.1 or 0.20 mg/kg, po by cassette dosing assay. The class given is ADME, organism-based, Canis lupus familiaris. Also noted: dose 0.2 mg/kg, route oral. Conditions: in vivo, 0.2 mg/kg.

The target of data set [7] is Beta-1 adrenergic receptor (Homo sapiens, UniProt P08588).
Description: Agonist activity at human cloned beta-1 adrenergic receptor expressed in CHO cells assessed as cAMP accumulation
The nature of data set [8]: Cmax in dog at 0.32 mg/kg, po by cassette assay. The class given is ADME, organism-based, Canis lupus familiaris. Also noted: dose 0.32 mg/kg, route oral. Conditions: in vivo.
Data set [9] in a line: Bioavailability in dog at 0.1 mg/mL, iv by cassette assay. The class given is ADME, organism-based, Canis lupus familiaris. Conditions: in vivo.
Data set [10] is described as follows: Total clearance in dog at 0.1 mg/mL, iv by cassette assay. Format: ADME, organism-based, Canis lupus familiaris. The conditions noted are these: in vivo.
In data set [11] the test system is Canis familiaris. The experiment in a line: Ratio of AUC for drug to AUC for 4-((7S)-7-{[(2R)-2-(3-Chlorophenyl)-2-hydroxyethyl]amino}-5,6,7,8-tetrahydro-2-naphthalenyl)benzoic acid hydrochloride in dog at 0.1 or 0.20 mg/kg, po by cassette dosing assay. Format: ADME, organism-based, Canis lupus familiaris. Set-up: dose 0.2 mg/kg, route oral. The conditions noted are these: in vivo, 0.2 mg/kg.

Data set [12] relates to Canis familiaris. The experiment in a line: Ratio of Cmax for drug to Cmax for 4-((7S)-7-{[(2R)-2-(3-Chlorophenyl)-2-hydroxyethyl]amino}-5,6,7,8-tetrahydro-2-naphthalenyl)benzoic acid hydrochloride in dog at 0.1 or 0.20 mg/kg, po by cassette dosing assay. The class given is ADME, organism-based, Canis lupus familiaris. Set-up: dose 0.2 mg/kg, route oral. Conditions: in vivo, 0.2 mg/kg.

The nature of data set [13]: Cmax in dog at 0.2 mg/kg, po by cassette assay. Set-up: dose 0.2 mg/kg, route oral. Conditions: in vivo. The class given is ADME, organism-based, Canis lupus familiaris.
Data set [14] can be described thus: Terminal half life in dog at 0.1 mg/kg, iv by cassette assay. The class given is ADME, organism-based, Canis lupus familiaris. Also noted: dose 0.1 mg/kg, route intravenous. The conditions noted are these: in vivo.
A short description of data set [15]: Total clearance in dog at 0.1 mg/kg, iv by cassette assay. The class given is ADME, organism-based, Canis lupus familiaris. Set-up: dose 0.1 mg/kg, route intravenous. Conditions: in vivo.
Data set [16] is described as follows: AUC (0 to 24 hrs) in dog at 0.2 mg/kg, po by cassette assay. The class given is ADME, organism-based, Canis lupus familiaris. Set-up: time < 24 hr, dose 0.2 mg/kg, route oral. The conditions noted are these: plasma.
A short description of data set [17]: Oral bioavailability in dog at 0.1 mg/kg by cassette assay. The class given is ADME, organism-based, Canis lupus familiaris. Conditions: in vivo.
The nature of data set [18]: Oral bioavailability in monkey at 0.32 mg/kg by cassette assay. Format: ADME, organism-based, Macaca mulatta. The conditions noted are these: rhesus monkey, in vivo.
Data set [19] in a line: AUC (0 to 24 hrs) in dog at 0.21 mg/kg, po by cassette assay. Format: ADME, organism-based, Canis lupus familiaris. Conditions: plasma. Also noted: time < 24 hr, dose 0.21 mg/kg, route oral.
A short description of data set [20]: Terminal half life in rat at 0.50 mg/kg, iv by cassette assay. Format: ADME, organism-based. Set-up: dose 0.5 mg/kg, route intravenous. The conditions noted are these: in vivo, 0.5 mg/kg.
Data set [21] is described as follows: Cmax in rat at 0.52 mg/kg, po by cassette assay. The class given is ADME, organism-based. Set-up: dose 0.52 mg/kg, route oral. The conditions noted are these: in vivo.
The nature of data set [22]: Total clearance in rat at 0.50 mg/kg, iv by cassette assay. The class given is ADME, organism-based. Set-up: dose 0.5 mg/kg, route intravenous. Conditions: in vivo, 0.5 mg/kg.
Data set [23] is described as follows: Terminal half life in monkey at 0.32 mg/kg, iv by cassette assay. Set-up: dose 0.32 mg/kg, route intravenous. Conditions: rhesus monkey, in vivo. Format: ADME, organism-based, Macaca mulatta.
Data set [24] can be described thus: Cmax in dog at 0.21 mg/kg, po by cassette assay. Also noted: dose 0.21 mg/kg, route oral. Format: ADME, organism-based, Canis lupus familiaris. The conditions noted are these: in vivo.
The nature of data set [25]: Total clearance in monkey at 0.32 mg/kg, iv by cassette assay. Format: ADME, organism-based, Macaca mulatta. Set-up: dose 0.32 mg/kg, route intravenous. The conditions noted are these: rhesus monkey, in vivo.
A short description of data set [26]: AUC (0 to 24 hrs) in rat at 0.52 mg/kg, po by cassette assay. The class given is ADME, organism-based. Also noted: time < 24 hr, dose 0.52 mg/kg, route oral. The conditions noted are these: plasma.
The nature of data set [27]: Cmax in monkey at 1.0 mg/kg, po by cassette assay. The class given is ADME, organism-based, Macaca mulatta. Set-up: dose 1 mg/kg, route oral. The conditions noted are these: rhesus monkey, in vivo.
Data set [28] is described as follows: AUC (0 to 24 hrs) in monkey at 1.0 mg/kg, po by cassette assay. The class given is ADME, organism-based, Macaca mulatta. Also noted: time < 24 hr, dose 1 mg/kg, route oral. The conditions noted are these: rhesus monkey, plasma.
Data set [29] can be described thus: Oral bioavailability in rat at 0.50 mg/kg by cassette assay. Format: ADME, organism-based. The conditions noted are these: in vivo, 0.5 mg/kg.

Chain of Beta-1 adrenergic receptor (P08588 whole entry): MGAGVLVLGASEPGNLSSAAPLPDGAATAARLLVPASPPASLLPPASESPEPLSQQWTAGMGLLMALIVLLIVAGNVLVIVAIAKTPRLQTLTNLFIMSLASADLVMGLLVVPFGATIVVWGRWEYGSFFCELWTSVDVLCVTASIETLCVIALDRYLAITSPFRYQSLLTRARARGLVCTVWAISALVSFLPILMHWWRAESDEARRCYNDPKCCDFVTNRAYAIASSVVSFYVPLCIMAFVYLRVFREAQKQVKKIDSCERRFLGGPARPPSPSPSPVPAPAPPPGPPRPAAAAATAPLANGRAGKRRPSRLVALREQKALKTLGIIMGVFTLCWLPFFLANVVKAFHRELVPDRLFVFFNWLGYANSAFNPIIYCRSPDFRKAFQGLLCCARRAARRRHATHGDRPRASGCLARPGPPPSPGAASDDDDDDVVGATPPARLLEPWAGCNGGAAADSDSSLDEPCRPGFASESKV
Chain of Beta-2 adrenergic receptor (P07550 whole entry): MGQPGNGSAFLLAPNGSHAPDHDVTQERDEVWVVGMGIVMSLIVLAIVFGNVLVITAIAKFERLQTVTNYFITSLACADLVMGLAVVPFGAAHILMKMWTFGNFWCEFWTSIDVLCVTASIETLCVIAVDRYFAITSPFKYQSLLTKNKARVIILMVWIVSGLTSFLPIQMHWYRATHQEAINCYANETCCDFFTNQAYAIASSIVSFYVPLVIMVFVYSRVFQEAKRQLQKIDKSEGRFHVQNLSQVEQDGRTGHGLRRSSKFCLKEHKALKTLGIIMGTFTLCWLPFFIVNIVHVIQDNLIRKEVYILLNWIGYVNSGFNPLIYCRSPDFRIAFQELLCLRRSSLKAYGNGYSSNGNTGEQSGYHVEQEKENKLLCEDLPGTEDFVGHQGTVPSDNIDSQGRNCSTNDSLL
Chain of Beta-3 adrenergic receptor (P13945 whole entry): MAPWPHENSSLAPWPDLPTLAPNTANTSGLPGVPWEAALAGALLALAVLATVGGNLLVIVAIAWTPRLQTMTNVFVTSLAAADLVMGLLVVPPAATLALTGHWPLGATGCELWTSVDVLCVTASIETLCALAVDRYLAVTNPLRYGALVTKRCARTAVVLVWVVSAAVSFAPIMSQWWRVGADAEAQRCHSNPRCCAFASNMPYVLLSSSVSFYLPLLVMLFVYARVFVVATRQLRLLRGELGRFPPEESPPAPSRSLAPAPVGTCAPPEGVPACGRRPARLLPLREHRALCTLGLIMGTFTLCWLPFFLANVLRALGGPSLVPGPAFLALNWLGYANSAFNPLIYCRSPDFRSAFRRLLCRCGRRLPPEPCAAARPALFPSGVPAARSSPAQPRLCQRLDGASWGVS

In data set [1], `O=C(O)c1cccc(Oc2ccc3c(c2)C[C@@H](NC[C@H](O)c2cccc(Cl)c2)CC3)c1` came in with an AUC(0-t) at 24 h of 2000 ng·h/mL. The molecule also gave a half-life in data set [2] of 7.9 h. Also, the Ratio in the data set with Canis familiaris [3] was 1. The Ratio EC50 in the data set listed under Homo sapiens was over 138. Besides, the EC50 was 7.1 nM in data set [4], over 1000 nM in [5] and over 1000 nM in [7]. For the same molecule, the “Ratio AUC” value in the data set with Canis familiaris [6] was determined as 1. In addition, the Cmax in data set [8] is 151 ng/mL. The same molecule displayed a bioavailability in data set [9] of 81%. Moreover, the clearance in data set [10] amounted to 2.4 mL/min/kg.

With `O=C(O)c1ccc(-c2ccc3c(c2)C[C@@H](NC[C@H](O)c2ccc(Cl)nc2)CC3)cc1`, in the data set on Canis familiaris [11], the “Ratio AUC” value is on record as 0.53. Besides, the Ratio EC50 in the data set filed under Homo sapiens was over 1260. In addition, the results for the EC50 in data set [4], in data set [5] and in data set [7] were 0.85 nM, over 1000 nM and 200 nM, respectively. In addition, in the data set on Canis familiaris [12], the Ratio is 0.73.

As for `CN(C)c1cc(Oc2ccc3c(c2)C[C@@H](NC[C@H](O)c2cccc(Cl)c2)CC3)cc(C(=O)O)c1`, in data set [13], the Cmax was 189 ng/mL. Also, the half-life in data set [14] was 3.94 h. In data set [15], this molecule displayed a clearance of 2.38 mL/min/kg. Besides, in the data set on Canis familiaris [3], the Ratio is given as 1.18. Further, the Ratio EC50 in the data set listed under Homo sapiens is over 312. Besides, the values for the EC50 in data set [4], in data set [5] and in data set [7] were 3.2 nM, over 1000 nM and over 1000 nM, respectively. Further, the AUC(0-t) at 24 h in data set [16] came out at 1470 ng·h/mL. Further, the “Ratio AUC” value in the data set with Canis familiaris [6] is 0.83. This molecule also registered a bioavailability in [17] of over 95%.

As for `COc1ccc(Oc2ccc3c(c2)C[C@@H](NC[C@H](O)c2ccc(Cl)cc2)CC3)cc1C(=O)O`, the bioavailability was 48% in [18], 64.2% in data set [17] and over 95% in [29]. The AUC(0-t) at 24 h in data set [19] came to 1530 ng·h/mL; in data set [26], 4580 ng·h/mL; in [28], 1560 ng·h/mL. Further, the half-life was 11.9 h in data set [20], 8.3 h in data set [14] and 6.7 h in data set [23]. Also, the Cmax in data set [21] amounted to 367 ng/mL; in data set [24], 103 ng/mL; in data set [27], 319 ng/mL. Besides, the clearance was 2 mL/min/kg in data set [22], 1.4 mL/min/kg in data set [15] and 5.3 mL/min/kg in data set [25]. Also, the Ratio with Canis familiaris [3] was 0.64. Besides, the Ratio EC50 in the data set listed under Homo sapiens is over 217. The EC50 is 4.7 nM in data set [4], over 1000 nM in data set [5] and over 1000 nM in data set [7]. In the data set with Canis familiaris [6], the “Ratio AUC” value is on record as 0.76.

For the molecule `Cc1cc(C(=O)O)ccc1-c1ccc2c(c1)C[C@@H](NC[C@H](O)c1ccc(Cl)cc1)CC2`, the “Ratio AUC” value in the data set on Canis familiaris [11] worked out at 0.64. In the data set listed under Homo sapiens, the Ratio EC50 worked out at 400. In addition, the EC50 came out at 2 nM in [4] and 800 nM in data set [7]. For the same molecule, in the data set with Canis familiaris [12], the Ratio came to 0.72.

Consider `O=C(O)c1ccc(Oc2ccc3c(c2)C[C@@H](NC[C@H](O)c2cccc(Cl)c2)CC3)nc1`, for which, in [1], the exposure AUC(0-t) at 24 h was found to be 320 ng·h/mL. The molecule further had a half-life in data set [2] of 2.8 h. The Ratio EC50 in the data set listed under Homo sapiens came to 50. Moreover, the values for the concentration giving a half-maximal response (EC50) in data set [4], in [5] and in data set [7] were 1.47 nM, over 1000 nM and 70 nM, respectively. The same molecule gave a Cmax in data set [8] of 49 ng/mL. In data set [9], this molecule yielded a bioavailability of 61%. The clearance in data set [10] was found to be 10.8 mL/min/kg.

Take `O=C(O)c1cccc(Oc2ccc3c(c2)C[C@@H](NC[C@H](O)c2cccc(Cl)c2)CCC3)c1`: in [1], the exposure AUC(0-t) at 24 h worked out at 538 ng·h/mL. The half-life in [2] is 3 h. In the data set filed under Homo sapiens, the Ratio EC50 is 35. Besides, the EC50 in data set [4] was 4.5 nM; in data set [5] it was over 1000 nM; in data set [7] it was 160 nM. For the same molecule, the Cmax in [8] was determined as 65.7 ng/mL. In addition, the bioavailability in data set [9] came out at 69%. The clearance in [10] came to 6.8 mL/min/kg.
